Experimental data from paper PMC8402619 (Viruses, 2021).

Key:
Assay type in all cases: in vitro ADME
CYP2C19 = CYP2C19 (Homo sapiens, UniProt P33261); assay: Reversible CYP inhibition in pooled human liver microsomes
OCT2 = target: T1, OCT2 (Homo sapiens, UniProt O15244); assay: Inhibition of transporter-mediated probe uptake in CHO-K1-OCT2 cells
T1 construct: expressed in transfected cells; host or cells: CHO-K1
T1 sequence (O15244 1-555): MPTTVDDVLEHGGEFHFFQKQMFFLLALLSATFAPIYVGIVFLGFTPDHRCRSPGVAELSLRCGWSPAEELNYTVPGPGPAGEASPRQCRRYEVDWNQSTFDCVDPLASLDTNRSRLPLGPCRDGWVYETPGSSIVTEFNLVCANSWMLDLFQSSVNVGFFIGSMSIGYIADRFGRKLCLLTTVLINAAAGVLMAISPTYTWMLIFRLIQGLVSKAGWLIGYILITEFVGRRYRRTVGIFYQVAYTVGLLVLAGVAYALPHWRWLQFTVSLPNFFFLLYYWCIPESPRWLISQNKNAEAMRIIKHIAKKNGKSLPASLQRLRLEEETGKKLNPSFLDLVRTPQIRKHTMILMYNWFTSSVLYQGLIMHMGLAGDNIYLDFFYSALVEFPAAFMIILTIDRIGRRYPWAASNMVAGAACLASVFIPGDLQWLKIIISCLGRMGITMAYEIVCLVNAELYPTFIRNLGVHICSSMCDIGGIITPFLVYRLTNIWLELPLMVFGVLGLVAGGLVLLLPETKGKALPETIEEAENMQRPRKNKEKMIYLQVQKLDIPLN

OAT3 = target: T2, OAT3 (Homo sapiens, UniProt Q8TCC7); assay: Islatravir uptake as substrate, MDCKII vs MDCKII-OAT3 cells
T2 construct: expressed in transfected cells; host or cells: MDCKII
T2 sequence (Q8TCC7 1-542): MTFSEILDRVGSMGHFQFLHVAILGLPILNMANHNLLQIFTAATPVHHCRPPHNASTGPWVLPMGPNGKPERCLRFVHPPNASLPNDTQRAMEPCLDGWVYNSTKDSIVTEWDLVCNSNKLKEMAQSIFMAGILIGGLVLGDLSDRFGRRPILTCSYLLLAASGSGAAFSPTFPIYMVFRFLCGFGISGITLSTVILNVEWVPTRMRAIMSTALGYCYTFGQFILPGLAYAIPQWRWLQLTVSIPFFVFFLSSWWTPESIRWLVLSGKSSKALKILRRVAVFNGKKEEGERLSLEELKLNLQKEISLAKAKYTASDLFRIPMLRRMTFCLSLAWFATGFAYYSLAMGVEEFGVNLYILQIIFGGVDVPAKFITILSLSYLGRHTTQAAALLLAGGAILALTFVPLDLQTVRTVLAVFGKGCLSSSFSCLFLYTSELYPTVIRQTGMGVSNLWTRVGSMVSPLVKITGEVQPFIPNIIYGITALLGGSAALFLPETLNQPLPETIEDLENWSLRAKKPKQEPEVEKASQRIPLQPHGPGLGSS

MDR1 P-gp = MDR1 P-gp (Homo sapiens, UniProt P08183); parameters: expressed in transfected cells; host or cells: LLC-PK1
Sequence of MDR1 P-gp (P08183 whole entry): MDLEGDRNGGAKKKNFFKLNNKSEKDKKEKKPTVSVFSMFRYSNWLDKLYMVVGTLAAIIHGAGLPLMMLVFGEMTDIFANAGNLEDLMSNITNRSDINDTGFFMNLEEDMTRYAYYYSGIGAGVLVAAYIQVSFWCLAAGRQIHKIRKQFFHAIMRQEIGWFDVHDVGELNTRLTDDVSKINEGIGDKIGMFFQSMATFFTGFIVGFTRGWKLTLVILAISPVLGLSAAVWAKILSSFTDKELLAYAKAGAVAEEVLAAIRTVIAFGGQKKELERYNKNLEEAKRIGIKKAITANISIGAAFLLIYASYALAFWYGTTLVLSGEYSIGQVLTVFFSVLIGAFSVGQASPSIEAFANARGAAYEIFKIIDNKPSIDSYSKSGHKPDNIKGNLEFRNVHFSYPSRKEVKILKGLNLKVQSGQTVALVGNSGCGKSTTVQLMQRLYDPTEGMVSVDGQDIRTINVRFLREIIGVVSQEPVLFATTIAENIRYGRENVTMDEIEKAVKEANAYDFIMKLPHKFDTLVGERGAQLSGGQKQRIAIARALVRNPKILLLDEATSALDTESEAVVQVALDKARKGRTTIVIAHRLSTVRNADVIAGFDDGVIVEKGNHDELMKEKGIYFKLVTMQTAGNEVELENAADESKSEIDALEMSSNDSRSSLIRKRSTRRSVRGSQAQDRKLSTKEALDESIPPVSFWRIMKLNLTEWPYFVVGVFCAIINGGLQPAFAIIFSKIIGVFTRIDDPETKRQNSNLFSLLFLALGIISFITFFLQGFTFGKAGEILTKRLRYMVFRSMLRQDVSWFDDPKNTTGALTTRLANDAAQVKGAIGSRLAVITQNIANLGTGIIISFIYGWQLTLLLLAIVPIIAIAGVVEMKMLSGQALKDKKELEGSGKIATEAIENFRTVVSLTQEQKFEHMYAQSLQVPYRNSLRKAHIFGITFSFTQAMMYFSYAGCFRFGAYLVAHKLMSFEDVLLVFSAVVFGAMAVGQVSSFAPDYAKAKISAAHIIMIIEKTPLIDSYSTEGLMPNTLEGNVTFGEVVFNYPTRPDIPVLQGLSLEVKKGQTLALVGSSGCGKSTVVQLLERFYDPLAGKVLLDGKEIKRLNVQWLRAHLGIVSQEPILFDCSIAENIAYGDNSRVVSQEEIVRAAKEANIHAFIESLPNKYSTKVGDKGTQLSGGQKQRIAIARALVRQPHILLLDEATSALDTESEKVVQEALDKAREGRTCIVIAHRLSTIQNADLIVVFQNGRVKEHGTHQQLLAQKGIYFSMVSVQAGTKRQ

[1] = Plasma protein binding by equilibrium dialysis, rabbit plasma; settings: pH 7.4
OATP1B3 = target: T3, OATP1B3 (Homo sapiens, UniProt Q9NPD5); assay: Inhibition of transporter-mediated probe uptake in HEK293-OATP1B3 cells
T3 construct: host or cells: HEK293
T3 sequence (Q9NPD5 1-702): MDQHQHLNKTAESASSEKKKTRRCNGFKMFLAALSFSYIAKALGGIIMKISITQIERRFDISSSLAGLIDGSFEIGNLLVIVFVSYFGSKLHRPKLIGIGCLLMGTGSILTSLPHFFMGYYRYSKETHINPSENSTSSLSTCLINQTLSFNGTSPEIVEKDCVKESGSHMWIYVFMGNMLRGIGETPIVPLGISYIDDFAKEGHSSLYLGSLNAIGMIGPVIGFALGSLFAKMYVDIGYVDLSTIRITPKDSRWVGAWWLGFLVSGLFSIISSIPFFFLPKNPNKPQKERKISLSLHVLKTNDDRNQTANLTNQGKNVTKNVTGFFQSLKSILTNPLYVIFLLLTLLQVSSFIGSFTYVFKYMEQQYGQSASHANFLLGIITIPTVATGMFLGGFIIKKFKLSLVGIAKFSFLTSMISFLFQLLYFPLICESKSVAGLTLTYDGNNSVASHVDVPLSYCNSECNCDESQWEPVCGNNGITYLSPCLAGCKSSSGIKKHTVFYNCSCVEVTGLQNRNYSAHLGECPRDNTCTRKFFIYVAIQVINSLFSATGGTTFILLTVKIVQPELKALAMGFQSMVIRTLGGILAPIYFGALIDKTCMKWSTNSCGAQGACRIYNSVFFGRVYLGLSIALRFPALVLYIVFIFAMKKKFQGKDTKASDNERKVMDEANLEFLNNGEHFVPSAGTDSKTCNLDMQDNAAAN

Sequence of CYP2C19 (P33261 whole entry): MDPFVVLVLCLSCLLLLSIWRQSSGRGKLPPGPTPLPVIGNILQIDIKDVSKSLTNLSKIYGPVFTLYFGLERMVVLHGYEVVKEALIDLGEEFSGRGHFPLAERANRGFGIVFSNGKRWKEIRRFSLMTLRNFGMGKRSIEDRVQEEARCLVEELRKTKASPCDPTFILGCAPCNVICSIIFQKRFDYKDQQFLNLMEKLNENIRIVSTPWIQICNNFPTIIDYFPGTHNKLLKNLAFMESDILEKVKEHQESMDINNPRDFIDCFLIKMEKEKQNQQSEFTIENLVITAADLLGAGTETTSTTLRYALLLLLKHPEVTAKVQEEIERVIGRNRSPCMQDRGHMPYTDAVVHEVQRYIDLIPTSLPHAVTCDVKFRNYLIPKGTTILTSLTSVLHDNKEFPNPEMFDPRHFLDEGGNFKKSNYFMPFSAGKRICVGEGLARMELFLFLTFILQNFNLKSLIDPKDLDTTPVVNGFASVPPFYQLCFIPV

## C#C[C@]1(CO)O[C@@H](n2cnc3c(N)nc(F)nc32)C[C@@H]1O [Islatravir, 4′-Ethynyl-2-fluoro-2′-deoxyadenosine]
CYP2C19; CYP2C19 reversible inhibition, FDA, EMA, PMDA guidance
  DDI Potential: Low risk
CYP2C19; CYP2C19 reversible, 60 mg, Cmax 1.01 µM, fu,p 0.96, Ki,u = IC50/2
  Maximum Unbound Plasma Concentration (Imax,u) to Ki,u Ratio: <0.019 µM
CYP2C19; reversible, CYP2C19 S-mephenytoin 4′-hydroxylation, read-out: Islatravir IC50
  IC50: > 100 µM
OCT2; CHO-K1-OCT2 cells, probe metformin, 100 µM islatravir
  inhibition at 100 µM: 15%
OCT2; OCT2-mediated metformin uptake, read-out: Islatravir IC50
  IC50: > 100 µM
OCT2; OCT2, 60 mg, Cmax 1.01 µM, fu,p 0.96
  Maximum Unbound Plasma Concentration (Imax,u) to IC50 Ratio: <0.010 µM
OCT2; OCT2 inhibition, FDA, EMA, PMDA guidance
  DDI Potential: Low risk
OAT3; MDCKII-OAT3, 1 µM [3H]islatravir, 5 min, mean ± SD, n = 3
  Islatravir Uptake Transporter-Expressing Cells: 0.85 ± 0.06 pmole/10^6 Cells
OAT3; OAT3, uptake into transporter-expressing cells to control cells, 5 min
  Fold-Difference: 1.23
OAT3; OAT3 row, MDCKII control cells, 1 µM [3H]islatravir, 5 min, mean ± SD, n = 3
  Islatravir Uptake Control Cells: 0.69 ± 0.07 pmole/10^6 Cells
OAT3; OAT3 substrate assessment
  Conclusions: Non-substrate
MDR1 P-gp; MDR1 P-gp inhibition, FDA, EMA, PMDA guidance
  DDI Potential: Low risk
MDR1 P-gp; MDR1 P-gp-mediated digoxin transport, read-out: Islatravir IC50
  IC50: > 200 µM
MDR1 P-gp; MDR1 P-gp, 60 mg, Cmax 1.01 µM, fu,p 0.96
  Maximum Unbound Plasma Concentration (Imax,u) to IC50 Ratio: <0.005 µM
MDR1 P-gp; MDR1 P-gp, Igut = 60 mg/250 mL = 818 µM
  Intestinal Concentration (Igut) to IC50 Ratio: <4.1 µM
[1]
  fraction unbound at 24 h, 0.1 µM: > 0.84
OATP1B3; OATP1B3-mediated uptake of sulfobromophthalein, read-out: Islatravir IC50
  IC50: > 300 µM
OATP1B3; OATP1B3, 60 mg dose
  Maximum Unbound Inlet Concentration (Iin,max,u) to IC50 Ratio: <0.035
OATP1B3; OATP1B3 inhibition, FDA, EMA, PMDA guidance
  DDI Potential: Low risk
